US10023570B2 (Array BioPharma, Inc., priority 2015, dated 2018)
Like-named read-outs stand apart in the source and are kept apart here.

Experiments:
[1] = molecular target: human KDR protein in HEK-293 cells (Homo sapiens (Human), UniProt P35968); assay: KDR Cell Assay (phospho-KDR in HEK-293 cells expressing inducible KDR); assay type: cell-based; conditions: pKDR Cell HEK 10% FBS IC50, HEK-293 cells expressing inducible KDR, VEGF stimulated, 10% FBS
How it was run: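 HEK-293 cells with inducible human KDR were treated with compound for 1 h in DMEM (0.25% DMSO final), then lysed. Phospho-KDR was quantified by Meso Scale immunoassay, expressed as percent of control, and IC50 taken where a 4-parameter logistic fit crossed 50 POC.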

[2] = molecular target: Kif5b-RET fusion protein in HEK-293 cells (Homo sapiens, UniProt P07949); assay: cell-based; conditions: read-out: KIF5B-RET pTYR1062 Cell IC50
Chain of Kif5b-RET fusion protein in HEK-293 cells (P07949 29-1114 limits assumed): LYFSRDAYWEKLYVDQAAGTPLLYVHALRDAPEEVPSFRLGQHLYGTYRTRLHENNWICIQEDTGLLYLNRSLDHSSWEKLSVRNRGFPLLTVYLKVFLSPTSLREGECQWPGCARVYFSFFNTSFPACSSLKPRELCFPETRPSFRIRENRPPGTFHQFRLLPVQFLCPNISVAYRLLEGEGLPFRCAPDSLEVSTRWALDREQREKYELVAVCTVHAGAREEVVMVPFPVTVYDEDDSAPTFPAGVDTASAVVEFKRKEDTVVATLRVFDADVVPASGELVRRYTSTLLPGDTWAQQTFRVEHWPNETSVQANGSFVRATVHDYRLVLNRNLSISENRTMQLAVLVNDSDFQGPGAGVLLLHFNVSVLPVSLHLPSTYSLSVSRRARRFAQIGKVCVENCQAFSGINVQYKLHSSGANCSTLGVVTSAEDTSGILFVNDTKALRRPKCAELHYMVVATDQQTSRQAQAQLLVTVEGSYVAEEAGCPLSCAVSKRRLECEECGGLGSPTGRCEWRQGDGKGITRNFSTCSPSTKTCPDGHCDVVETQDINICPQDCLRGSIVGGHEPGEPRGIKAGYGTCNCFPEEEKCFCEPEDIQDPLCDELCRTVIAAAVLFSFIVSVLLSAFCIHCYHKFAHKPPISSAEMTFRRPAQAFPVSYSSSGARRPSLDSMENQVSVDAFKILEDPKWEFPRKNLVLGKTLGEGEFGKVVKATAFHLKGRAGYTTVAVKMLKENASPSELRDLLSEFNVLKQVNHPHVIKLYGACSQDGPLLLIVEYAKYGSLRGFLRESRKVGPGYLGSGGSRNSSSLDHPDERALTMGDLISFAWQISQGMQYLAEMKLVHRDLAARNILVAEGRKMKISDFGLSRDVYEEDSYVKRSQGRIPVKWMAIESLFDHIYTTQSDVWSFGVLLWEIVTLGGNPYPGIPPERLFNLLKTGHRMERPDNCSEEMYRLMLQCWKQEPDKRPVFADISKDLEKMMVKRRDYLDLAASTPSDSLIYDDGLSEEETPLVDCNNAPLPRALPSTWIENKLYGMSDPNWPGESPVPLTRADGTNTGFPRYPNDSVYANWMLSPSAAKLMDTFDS

[3] = molecular target: N-terminal GST tagged recombinant human RET cytoplasmic domain (aa 658-end), wild type RET kinase (Homo sapiens (Human), UniProt P07949); assay: RET Enzyme Assay (HTRF KinEASE-TK), wild type RET; assay type: biochemical; conditions: wild type RET, 1 mM ATP
Chain of N-terminal GST tagged recombinant human RET cytoplasmic domain (aa 658-end), wild type RET kinase (P07949 658-1114): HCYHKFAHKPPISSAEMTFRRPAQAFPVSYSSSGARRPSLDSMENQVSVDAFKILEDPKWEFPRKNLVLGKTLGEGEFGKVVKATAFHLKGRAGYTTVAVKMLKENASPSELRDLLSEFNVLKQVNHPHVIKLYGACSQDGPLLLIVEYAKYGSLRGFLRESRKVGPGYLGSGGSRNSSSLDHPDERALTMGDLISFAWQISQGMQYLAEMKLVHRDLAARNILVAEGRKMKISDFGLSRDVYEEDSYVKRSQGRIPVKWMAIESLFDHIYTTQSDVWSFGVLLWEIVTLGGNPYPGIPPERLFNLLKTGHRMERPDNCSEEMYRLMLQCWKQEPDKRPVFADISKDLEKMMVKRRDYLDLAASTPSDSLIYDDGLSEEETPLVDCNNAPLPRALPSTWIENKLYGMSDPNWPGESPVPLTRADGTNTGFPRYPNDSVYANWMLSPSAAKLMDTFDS

[4] = HEK-293 cells expressing Kif5b-RET, phospho-RET(Tyr1062)

Chain of human KDR protein in HEK-293 cells (P35968 20-1356): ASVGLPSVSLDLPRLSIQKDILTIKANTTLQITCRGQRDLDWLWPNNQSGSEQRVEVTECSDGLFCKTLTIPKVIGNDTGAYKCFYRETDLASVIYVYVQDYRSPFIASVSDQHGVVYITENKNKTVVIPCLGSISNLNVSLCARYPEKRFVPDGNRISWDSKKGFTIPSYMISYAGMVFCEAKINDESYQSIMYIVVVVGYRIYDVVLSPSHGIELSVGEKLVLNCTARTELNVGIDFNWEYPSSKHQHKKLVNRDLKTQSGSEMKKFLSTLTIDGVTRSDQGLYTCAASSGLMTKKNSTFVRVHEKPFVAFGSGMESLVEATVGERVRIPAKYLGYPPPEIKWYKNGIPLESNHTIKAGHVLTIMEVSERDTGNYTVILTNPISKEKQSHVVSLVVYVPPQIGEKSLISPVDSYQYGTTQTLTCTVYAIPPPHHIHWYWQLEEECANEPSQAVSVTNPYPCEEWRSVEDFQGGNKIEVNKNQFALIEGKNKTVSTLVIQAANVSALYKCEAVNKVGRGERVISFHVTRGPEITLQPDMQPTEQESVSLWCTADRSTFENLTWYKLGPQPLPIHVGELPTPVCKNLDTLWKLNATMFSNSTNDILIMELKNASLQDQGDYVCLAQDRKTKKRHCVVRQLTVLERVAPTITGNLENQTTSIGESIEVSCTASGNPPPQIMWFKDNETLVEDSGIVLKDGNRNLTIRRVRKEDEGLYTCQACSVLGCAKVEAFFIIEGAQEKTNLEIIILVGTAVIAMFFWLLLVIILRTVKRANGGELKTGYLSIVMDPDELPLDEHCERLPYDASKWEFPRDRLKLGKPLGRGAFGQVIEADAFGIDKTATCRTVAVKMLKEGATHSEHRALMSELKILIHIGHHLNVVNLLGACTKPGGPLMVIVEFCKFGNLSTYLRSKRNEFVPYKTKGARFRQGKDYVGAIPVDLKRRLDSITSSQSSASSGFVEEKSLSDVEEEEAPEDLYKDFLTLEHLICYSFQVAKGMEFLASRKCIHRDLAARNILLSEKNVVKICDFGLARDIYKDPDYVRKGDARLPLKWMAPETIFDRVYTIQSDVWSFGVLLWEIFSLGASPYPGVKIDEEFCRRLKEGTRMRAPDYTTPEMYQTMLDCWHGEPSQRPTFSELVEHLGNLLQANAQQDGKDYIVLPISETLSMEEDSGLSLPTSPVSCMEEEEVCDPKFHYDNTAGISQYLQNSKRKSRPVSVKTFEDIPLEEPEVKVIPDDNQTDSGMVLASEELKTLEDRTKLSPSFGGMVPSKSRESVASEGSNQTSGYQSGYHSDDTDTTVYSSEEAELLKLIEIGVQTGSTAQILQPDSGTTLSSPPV

CC(C)[C@H](O)C(=O)N1CCN(c2ccc(-c3cc(-c4cnn(C)c4)cn4ncc(C#N)c34)cn2)CC1 [Example 54, (S)-4-(6-(4-(2-hydroxy-3-methylbutanoyl)piperazin-1-yl)pyridin-3-yl)-6-(1-methyl-1H-pyrazol-4-yl)pyrazolo[1,5-a]pyridine-3-carbonitrile]
IC50 [1]: 1480 nM
IC50 [2, 4]: 66.6 nM
IC50 [3]: 12.4 nM

C[C@@H](O)CC(=O)N1CCN(c2ccc(-c3cc(-c4cnn(C)c4)cn4ncc(C#N)c34)cn2)CC1 [Example 55, (R)-4-(6-(4-(3-hydroxybutanoyl)piperazin-1-yl)pyridin-3-yl)-6-(1-methyl-1H-pyrazol-4-yl)pyrazolo[1,5-a]pyridine-3-carbonitrile]
IC50 [1]: 923 nM
IC50 [2, 4]: 54.9 nM
IC50 [3]: 10.4 nM

CC(C)C[C@H](O)C(=O)N1CCN(c2ccc(-c3cc(-c4cnn(C)c4)cn4ncc(C#N)c34)cn2)CC1 [Example 56, (S)-4-(6-(4-(2-hydroxy-4-methylpentanoyl)piperazin-1-yl)pyridin-3-yl)-6-(1-methyl-1H-pyrazol-4-yl)pyrazolo[1,5-a]pyridine-3-carbonitrile]
IC50 [1]: 896 nM
IC50 [2, 4]: 35.5 nM
IC50 [3]: 16 nM

C[C@H](O)CC(=O)N1CCN(c2ccc(-c3cc(-c4cnn(C)c4)cn4ncc(C#N)c34)cn2)CC1 [Example 57, (S)-4-(6-(4-(3-hydroxybutanoyl)piperazin-1-yl)pyridin-3-yl)-6-(1-methyl-1H-pyrazol-4-yl)pyrazolo[1,5-a]pyridine-3-carbonitrile]
IC50 [1]: 1040 nM
IC50 [2, 4]: 48.6 nM
IC50 [3]: 12.7 nM

Cn1cc(-c2cc(-c3ccc(N4CCN(C(=O)C(C)(F)F)CC4)nc3)c3c(C#N)cnn3c2)cn1 [Example 59, 4-(6-(4-(2,2-difluoropropanoyl)piperazin-1-yl)pyridin-3-yl)-6-(1-methyl-1H-pyrazol-4-yl)pyrazolo[1,5-a]pyridine-3-carbonitrile]
IC50 [1]: 554 nM
IC50 [2, 4]: 26.6 nM
IC50 [3]: 16.3 nM

Cn1cc(-c2cc(-c3ccc(N4CCN(C(=O)[C@H](O)C(F)(F)F)CC4)nc3)c3c(C#N)cnn3c2)cn1 [Example 61, (S)-6-(1-methyl-1H-pyrazol-4-yl)-4-(6-(4-(3,3,3-trifluoro-2-hydroxypropanoyl)piperazin-1-yl)pyridin-3-yl)pyrazolo[1,5-a]pyridine-3-carbonitrile]
IC50 [1]: 148 nM
IC50 [2, 4]: 5.5 nM
IC50 [3]: 5.5 nM

CCC(C)(O)CC(=O)N1CCN(c2ccc(-c3cc(-c4cnn(C)c4)cn4ncc(C#N)c34)cn2)CC1 (stereo not drawn) [Example 63, 4-(6-(4-(3-hydroxy-3-methylpentanoyl)piperazin-1-yl)pyridin-3-yl)-6-(1-methyl-1H-pyrazol-4-yl)pyrazolo[1,5-a]pyridine-3-carbonitrile]
IC50 [1]: 527 nM
IC50 [2, 4]: 8.2 nM
IC50 [3]: 11.5 nM

Cn1cc(-c2cc(-c3ccc(N4CCN(C(=O)CC(C)(C)C)CC4)nc3)c3c(C#N)cnn3c2)cn1 [Example 65, 4-(6-(4-(3,3-dimethylbutanoyl)piperazin-1-yl)pyridin-3-yl)-6-(1-methyl-1H-pyrazol-4-yl)pyrazolo[1,5-a]pyridine-3-carbonitrile]
IC50 [1]: 902 nM
IC50 [2, 4]: 39.3 nM
IC50 [3]: 8.2 nM

CC(C)C(=O)N1CCN(c2ccc(-c3cc(-c4cnn(C)c4)cn4ncc(C#N)c34)cn2)CC1 [Example 66, 4-(6-(4-isobutyrylpiperazin-1-yl)pyridin-3-yl)-6-(1-methyl-1H-pyrazol-4-yl)pyrazolo[1,5-a]pyridine-3-carbonitrile]
IC50 [1]: 911 nM
IC50 [2, 4]: 25.4 nM
IC50 [3]: 14.1 nM

CCC(=O)N1CCN(c2ccc(-c3cc(-c4cnn(C)c4)cn4ncc(C#N)c34)cn2)CC1 [Example 67, 6-(1-methyl-1H-pyrazol-4-yl)-4-(6-(4-propionylpiperazin-1-yl)pyridin-3-yl)pyrazolo[1,5-a]pyridine-3-carbonitrile]
IC50 [1]: 522 nM
IC50 [2, 4]: 60.7 nM
IC50 [3]: 19.4 nM

CCCC(=O)N1CCN(c2ccc(-c3cc(-c4cnn(C)c4)cn4ncc(C#N)c34)cn2)CC1 [Example 70, 4-(6-(4-butyrylpiperazin-1-yl)pyridin-3-yl)-6-(1-methyl-1H-pyrazol-4-yl)pyrazolo[1,5-a]pyridine-3-carbonitrile]
IC50 [1]: 510 nM
IC50 [2, 4]: 18.5 nM
IC50 [3]: 8.4 nM

CC(C)CC(=O)N1CCN(c2ccc(-c3cc(-c4cnn(C)c4)cn4ncc(C#N)c34)cn2)CC1 [Example 75, 6-(1-methyl-1H-pyrazol-4-yl)-4-(6-(4-(3-methylbutanoyl)piperazin-1-yl)pyridin-3-yl)pyrazolo[1,5-a]pyridine-3-carbonitrile]
IC50 [1]: 392 nM
IC50 [2, 4]: 7 nM
IC50 [3]: 6.3 nM

Cn1cc(-c2cc(-c3ccc(N4CCN(C(=O)CC(C)(C)O)CC4)nc3)c3c(C#N)cnn3c2)cn1 [Example 79, 4-(6-(4-(3-hydroxy-3-methylbutanoyl)piperazin-1-yl)pyridin-3-yl)-6-(1-methyl-1H-pyrazol-4-yl)pyrazolo[1,5-a]pyridine-3-carbonitrile]
IC50 [1]: 1260 nM
IC50 [2, 4]: 31.3 nM
IC50 [3]: 14.5 nM

CC(C)[C@@H](O)C(=O)N1CCN(c2ccc(-c3cc(-c4cnn(C)c4)cn4ncc(C#N)c34)cn2)CC1 [Example 85, (R)-4-(6-(4-(2-hydroxy-3-methylbutanoyl)piperazin-1-yl)pyridin-3-yl)-6-(1-methyl-1H-pyrazol-4-yl)pyrazolo[1,5-a]pyridine-3-carbonitrile]
IC50 [1]: 771 nM
IC50 [2, 4]: 6.5 nM
IC50 [3]: 7.6 nM

CC[C@H](CO)NC(=O)N1CCN(c2ccc(-c3cc(-c4cnn(C)c4)cn4ncc(C#N)c34)cn2)CC1 [Example 96, (R)-4-(5-(3-cyano-6-(1-methyl-1H-pyrazol-4-yl)pyrazolo[1,5-a]pyridin-4-yl)pyridin-2-yl)-N-(1-hydroxybutan-2-yl)piperazine-1-carboxamide]
IC50 [1]: 1560 nM
IC50 [2, 4]: 51.9 nM
IC50 [3]: 6.3 nM

CCN(CC)C(=O)N1CCN(c2ccc(-c3cc(-c4cnn(C)c4)cn4ncc(C#N)c34)cn2)CC1 [Example 98, 4-(5-(3-cyano-6-(1-methyl-1H-pyrazol-4-yl)pyrazolo[1,5-a]pyridin-4-yl)pyridin-2-yl)-N,N-diethylpiperazine-1-carboxamide]
IC50 [1]: 1600 nM
IC50 [2, 4]: 13 nM
IC50 [3]: 3.6 nM

CC(C)NC(=O)N1CCN(c2ccc(-c3cc(-c4cnn(C)c4)cn4ncc(C#N)c34)cn2)CC1 [Example 126, 4-(5-(3-cyano-6-(1-methyl-1H-pyrazol-4-yl)pyrazolo[1,5-a]pyridin-4-yl)pyridin-2-yl)-N-isopropylpiperazine-1-carboxamide]
IC50 [1]: 347 nM
IC50 [2, 4]: 10.8 nM
IC50 [3]: 11.7 nM

Cn1cc(-c2cc(-c3ccc(N4CCN(C(=O)NC(C)(C)C)CC4)nc3)c3c(C#N)cnn3c2)cn1 [Example 128, N-(tert-butyl)-4-(5-(3-cyano-6-(1-methyl-1H-pyrazol-4-yl)pyrazolo[1,5-a]pyridin-4-yl)pyridin-2-yl)piperazine-1-carboxamide]
IC50 [1]: 555 nM
IC50 [2, 4]: 11.1 nM
IC50 [3]: 11.6 nM

COCCN(C)C(=O)N1CCN(c2ccc(-c3cc(-c4cnn(C)c4)cn4ncc(C#N)c34)cn2)CC1 [Example 130, 4-(5-(3-cyano-6-(1-methyl-1H-pyrazol-4-yl)pyrazolo[1,5-a]pyridin-4-yl)pyridin-2-yl)-N-(2-methoxyethyl)-N-methylpiperazine-1-carboxamide 2,2,2-trifluoroacetate]
IC50 [1]: 2250 nM
IC50 [2]: 33 nM
IC50 [3]: 20.8 nM
